Measured values taken from patent publication US20220023386A1, “METHOD FOR THE TREATMENT OR PREVENTION OF OSTEOARTHRITIS” (Chondropeptix B.V., priority 2016, published 2022).

Legend:
Assay in all cases: Expression of OA chondrocyte phenotype marker genes by RT-qPCR after peptide exposure
Assay type in all cases: cell-based, human
[1] = test system: OA articular chondrocytes; design: key: [—] denotes the absence of a significant effect or a significantly decreased expression of chondrogenic marker BAPX1/NKX3.2 or an increased expression of OA chondrocyte phenotypic markers ALP, MMP13, ADAMTS5, COX2, COL10A and RUNX2 in OA articular chondrocytes, in comparison to untreated OA articular chondrocyts; settings: Table 1, 20-mer peptides with native cysteines; vs untreated OA articular chondrocytes
Method: (§1) The action of 20-mer peptides (10 nM) of SEQ ID NO: 2-15 (peptides with 1 amino acids intervals (19 amino acid overlap)) and SEQ ID NO:49 on the expression of the indicated genes was determined on a validated pool of passage 2 OA human articular chondrocytes (n=18) and compared to full-length recombinant BMP-7 (1 nM). Samples were harvested after 24 hours and analyzed for indicated genes by RT-qPCR (corrected for 28S rRNA expression and relative to control conditions (no peptide exposure)). In the graphs, numbers on the x-axis represent individual peptides according to their SEQ ID NO:, error bars represent mean±SEM, statistical differences were calculated (one-way ANOVA with bonferroni correction) to control condition. *=p<0.05 lower than control condition for COL10A1, ALP, RUNX2, COX-2, MMP13 and ADAMTS5 and higher than control condition for BAPX1/NKX3.2. Random peptide is a peptide according to SEQ ID NO: 49 with amino acid sequence […].

[2] = test system: OA articular chondrocytes; design: key: [—] denotes the absence of a significant effect or a significantly decreased expression of chondrogenic marker BAPX1/NKX3.2 or an increased expression of OA chondrocyte phenotypic markers ALP, MMP13, ADAMTS5, COX2, COL10A and RUNX2 in OA articular chondrocytes, in comparison to untreated OA articular chondrocyts; settings: Table 1, 20-mer peptides with native cysteines; vs untreated OA articular chondrocytes; remark: listed apart in the source
[3] = test system: OA articular chondrocytes; design: key: [+] denotes a significantly increased expression of chondrogenic marker BAPX1/NKX3.2 or a decreased expression of OA chondrocyte phenotypic markers ALP, MMP13, ADAMTS5, COX2, COL10A and RUNX2 in OA articular chondrocytes, in comparison to untreated OA articular chondrocytes.; [−] denotes the absence of a significant effort or a significantly decreased expression of chondrogenic marker BAPX1/NKX3.2 or an increased expression of OA chondrocyte phenotypic markers ALP, MMP13, ADAMTS5, COX2, COL10A and RUNX2 in OA articular chondrocytes, in comparison to untreated OA articular chondrocytes; settings: Table 2 (FIGS. 2-8), peptide 10 nM, 24 hours, vs untreated OA articular chondrocytes
Method: as §1

[4] = test system: OA articular chondrocytes; design: key: [+] denotes a significantly increased expression of chondrogenic marker BAPX1/NKX3.2 or a decreased expression of OA chondrocyte phenotypic markers ALP, MMP13, ADAMTS5, COX2, COL10A and RUNX2 in OA articular chondrocytes, in comparison to untreated OA articular chondrocytes.; [−] denotes the absence of a significant effort or a significantly decreased expression of chondrogenic marker BAPX1/NKX3.2 or an increased expression of OA chondrocyte phenotypic markers ALP, MMP13, ADAMTS5, COX2, COL10A and RUNX2 in OA articular chondrocytes, in comparison to untreated OA articular chondrocytes; settings: vs untreated OA articular chondrocytes
[5] = test system: OA articular chondrocytes; design: key to ADAMTS5 expression: [+] denotes a significantly increased expression of chondrogenic marker BAPX1/NKX3.2 or a decreased expression of OA chondrocyte phenotypic markers ALP, MMP13, ADAMTS5, COX2, COL10A and RUNX2 in OA articular chondrocytes, in comparison to untreated OA articular chondrocytes.; [−] denotes the absence of a significant effort or a significantly decreased expression of chondrogenic marker BAPX1/NKX3.2 or an increased expression of OA chondrocyte phenotypic markers ALP, MMP13, ADAMTS5, COX2, COL10A and RUNX2 in OA articular chondrocytes, in comparison to untreated OA articular chondrocytes; settings: Table 3, N- and C-terminally truncated peptides; vs untreated OA articular chondrocytes
[6] = Table 3, N- and C-terminally truncated peptides

Substance	ALP expression [4, 6]	BAPX1/NKX3.2 expression [4, 6]	COL10A expression [4, 6]	COX-2 expression [4, 6]	RUNX2 expression [4, 6]	ADAMTS5 expression [5]	MMP13 expression [4, 6]	other results
42 (VHFINPETVPKPCCAPTQLN; homo sapiens) [compound 42]								ADAMTS5 expression [1]: —; ALP expression [2]: —; BAPX1/NKX3.2 expression [2]: —; COL10A expression [2]: —; COX-2 expression [2]: —; MMP13 expression [2]: —; RUNX2 expression [2]: —
39 (ACKKHELYVSFRDLGWQDWI; homo sapiens) [compound 39]								ADAMTS5 expression [1]: —; ALP expression [2]: —; BAPX1/NKX3.2 expression [2]: —; COL10A expression [2]: —; COX-2 expression [2]: —; MMP13 expression [2]: —; RUNX2 expression [2]: —
38 (EALRMANVAENSSSDQRQAC; homo sapiens) [compound 38]								ADAMTS5 expression [1]: —; ALP expression [2]: —; BAPX1/NKX3.2 expression [2]: —; COL10A expression [2]: —; COX-2 expression [2]: —; MMP13 expression [2]: —; RUNX2 expression [2]: —
16 (YSEGESAFPLNS; homo sapiens) [compound 16]	+	+	+	+	+	+		ADAMTS5 expression [3]: +; ALP expression [3]: +; BAPX1/NKX3.2 expression [3]: +; COL10A expression [3]: +; COX-2 expression [3]: +; RUNX2 expression [3]: +; MMP13 expression ([4]; Table 2 (FIGS. 2-8), peptide 10 nM, 24 hours): +
44 (SSNVILKKYRNMVVRACGCH; homo sapiens) [compound 44]								ADAMTS5 expression [1]: —; ALP expression [2]: —; BAPX1/NKX3.2 expression [2]: —; COL10A expression [2]: —; COX-2 expression [2]: —; MMP13 expression [2]: —; RUNX2 expression [2]: —
18 (PEGYAAYYSEGESAFPLNS; homo sapiens) [compound 18]	+	+	+	+	+	+	−	
26 (YSEGESAFPLNSY; homo sapiens) [compound 26]	+	+	+	+	+	+	+	
21 (YAAYYSEGESAFPLNS; homo sapiens) [compound 21]	+	+	+	+	+	+	+	
36 (EGYAAYYSEGESAFPLNSYMNATNHA; homo sapiens) [compound 36]	+	+	+	+	+	+	+	
35 (PEGYAAYYSEGESAFPLNSYMNATNHA; homo sapiens) [compound 35]	+	+	+	+	+	+	+	
41 (FPLNSYMNATNHAIVQTLVH; homo sapiens) [compound 41]								ADAMTS5 expression [1]: —; ALP expression [2]: —; BAPX1/NKX3.2 expression [2]: —; COL10A expression [2]: —; COX-2 expression [2]: —; MMP13 expression [2]: —; RUNX2 expression [2]: —
23 (AYYSEGESAFPLNS; homo sapiens) [compound 23]	+	+	+	+	+	+	+	
17 (APEGYAAYYSEGESAFPLNS; homo sapiens) [compound 17]	+	+	+	+	+	+	−	
33 (YSEGESAFPLNSYMNATNHA; homo sapiens) [compound 33]	+	+	+	+	+	+	+	
32 (YSEGESAFPLNSYMNATNH; homo sapiens) [compound 32]	+	+	+	+	+	+	+	
20 (GYAAYYSEGESAFPLNS; homo sapiens) [compound 20]	+	+	+	+	+	+	+	
28 (YSEGESAFPLNSYMN; homo sapiens) [compound 28]	+	+	+	+	+	+	+	
19 (EGYAAYYSEGESAFPLNS; homo sapiens) [compound 19]	+	+	+	+	+	+	+	
25 (YSEGESAFPLNS; homo sapiens) [compound 25]	+	+	+	+	+	+	+	
29 (YSEGESAFPLNSYMNA; homo sapiens) [compound 29]	+	+	+	+	+	+	+	
31 (YSEGESAFPLNSYMNATN; homo sapiens) [compound 31]	+	+	+	+	+	+	+	
